Laboratory results published in patent US20260021119A1, “TETRACYCLINE DERIVATIVES” (ICM (INSTITUT DU CERVEAU ET DE LA MOELLE ÉPINIÈRE), priority 2022, published 2026).

Columns and labels:
[1] = Brain penetration after single subcutaneous injection; assay type: in vivo; conditions: mouse, brain and serum, sc; 40 mg/kg single subcutaneous injection, Swiss mice, 30 min to 24 h, n=3; read-out: brain-to-plasma ratio calculated from the area under the concentration time curves
Method: Adult Swiss mice received a single subcutaneous injection of 40 mg/kg of the compound of formula (Ia) according to the present invention, the compound of formula (C), or doxycycline diluted in saline with 5% DMSO and 5% Tween 80 (doxycycline was used as a reference tetracycline). The mice were sacrificed 30 min, 1 h, 8 h, and 24 h after treatment. After sacrifice, brain and serum samples were collected and processed at each time point for tetracycline dosage, using an UHPLC system coupled with a triple quadrupole mass spectrometer LCMS-8030 (Shimadzu Corporation, Kyoto, Japan).

alpha-synuclein [2] = target: T1, alpha-synuclein (Homo sapiens, UniProt P37840); assay: alpha-synuclein fibrils by transmission electron microscopy (TEM); assay type: biochemical; conditions: 20 μM compound; vs alpha-synuclein alone
Method: By using transmission electron microscopy (TEM) we studied the alpha-synuclein aggregation in the presence of 20 μM of the compound of formula (Ia) in the same condition described above. For the samples mounting, 5 μL of a 7 μM alpha-synuclein solution were adsorbed onto a formvar carbon film coated copper grids (Electron Microscopy Sciences) and stained with uranyless.

alpha-synuclein [3] = target: T1, alpha-synuclein; assay: alpha-synuclein aggregation, thioflavin T (ThT) fluorescence; assay type: biochemical
Method: The antiaggregant effect of the compound of formula (Ia) according to the present invention on alpha-synuclein (αS) was evaluated in vitro by measuring the fluorescence intensity of the probe thioflavin T (ThT), a molecule that specifically binds to cross-β structures characteristic of amyloid-like aggregation. The compound of formula (Ia) was dissolved in dimethylsulfoxide to reach a concentration of […]. In this assay, 70 μM of alpha-synuclein was incubated with and without 10 μM, 20 μM and 50 μM of the compound of formula (Ia), under orbital agitation (600 rpm), at 37° C., for 5 days. After the incubation time, Tht was added to each sample and changes in the emission fluorescence spectra (λex=450 and λem=[…]) was monitored using a Horiba Fluoromax CP4 spectrofluorometer.

P. aeruginosa PA01 = assay: MIC, broth dilution (Example 3); assay type: cell-based; conditions: Pseudomonas aeruginosa, 18 h at 37° C., MH broth
Method: (§1) Bacterial strains used in this study were: S. aureus (ATCC25923), E. coli (ATCC25922), E. faecalis (ATCC29212) and P. aeruginosa (PA01). Strains were maintained at −80° C. in 15% (v/v) glycerol for cryoprotection. Bacteria were routinely grown in Mueller-Hinton (MH) broth at 37° C.
(§2) The susceptibility of bacterial strains to antibiotics and compounds was determined in microplates using the standard broth dilution method in accordance with the recommendations of the Comité de 1′Antibiogramme de la Société Française de Microbiologie (CA-SFM). (Members of the SFM Antibiogram Committee, R. Int. J. Antimicrob. Agents 2003, 21, 364). Briefly, the Minimal Inhibitory Concentrations (MICs) were determined with an inoculum of 10^5 CFU in 200 μL of MH broth containing two-fold serial dilutions of each drug. […] To determine all MICs, the measurements were independently repeated in triplicate.
(§3) The compound of formula (Ia) according to the invention was tested against clinical isolates Gram-bacteria (P. aeruginosa, E. coli) and Gram+ bacteria (S. aureus, E. faecalis). Minimum inhibitory concentrations (MIC) were tentatively determined and compared to known antibiotic tetracyclines (doxycycline, demeclocycline, chlortetracycline) and to the compound of formula (B) disclosed in Example 1 of the present application. The test was reproduced twice and the average MIC were calculated.

E. faecalis ATCC 29212 = assay: MIC, broth dilution (Example 3); assay type: cell-based; conditions: Enterococcus faecalis, ATCC29212; 18 h at 37° C., MH broth
Method: as §1, §2, §3

E. coli ATCC 25922 = assay: MIC, broth dilution (Example 3); assay type: cell-based; conditions: Escherichia coli, ATCC25922; 18 h at 37° C., MH broth
Method: as §1, §2, §3

S. aureus ATCC 25923 = assay: MIC, broth dilution (Example 3); assay type: cell-based
Method: as §1, §2, §3

[4] = test system: p-tau (phosphorylated tau protein at Ser202, Thr205 residues); assay: p-tau (AT8) expression in cultured cortical neurons under oxidative stress; assay type: cell-based, mouse; design: key to Reduction of the % of p-tau+ somas: a favorable response, synonymous with a decrease in the number of p-tau+ cell bodies; ++: a favorable response, synonymous with a decrease in the number of p-tau+ cell bodies; +++=reference level; an unfavorable response is represented by a sign “−”, synonymous with an elevation of the number of p-tau+ cell bodies; overexpression of p-tau in cortical cell bodies: dose or concentration left out as unconfirmed
Method: A culture model of cortical neurons from mouse embryonic brain was used, in which neuronal cells were subjected to a maturation step until day in vitro (div) 7, before being gradually exposed to phenol red formulated DMEM/Nutrient mixture F12 Ham supplemented with 20 μg/mL of insulin, and 2 μM of the NMDA receptor blocker MK-801 (DF12i).
Precisely, after 4 days of exposure to DF12i, between 10-15% of surviving neurons show a very strong AT8 immunosignal in their somas while only 1 to 1.5% of neuronal cell bodies are found immunopositive under conditions where oxidative stress is repressed by treatment with bovine apotransferrin (APO; 100 µg/mL, Sigma Aldrich), a glycoprotein with iron chelating properties. Likewise, overexpression of p-tau in cortical cell bodies is reduced by the two non-antibiotic tetracyclines compound of formula (C) ([…]) and compound of formula (Ib) ([…]): see the following Table: […]

| Structure (SMILES) | Kp [1] | amount of alpha-synuclein fibril (TEM) (alpha-synuclein [2]) | inhibition of alpha-synuclein aggregation (ThT fluorescence) (alpha-synuclein [3]; 10 μM, 20 μM and 50 μM compound, 70 μM alpha-synuclein, 37° C., 5 days, vs control, dose dependent) | Anti aggregant activity at 20 μM (alpha-synuclein [3]) | MIC (P. aeruginosa PA01) | MIC (E. faecalis ATCC 29212) | MIC (E. coli ATCC 25922) | activity on S. aureus compared with compound of formula (B) (S. aureus ATCC 25923) | MIC (S. aureus ATCC 25923; Staphylococcus aureus, ATCC25923, 18 h at 37° C., MH broth) | overexpression of p-tau in cortical cell bodies [4] | Reduction of the % of p-tau+ somas ([4]; compounds 3 μM, APO 100 μg/mL, mouse cortical cultures exposed div 7-11 to DF12i) |
| --- | --- | --- | --- | --- | --- | --- | --- | --- | --- | --- | --- |
| C[C@H]1c2cccc(O)c2C(=O)C2=C(O)C3C(=O)C(C(N)=O)=C(O)C[C@@H]3[C@@H](O)[C@@H]21 (stereo partly drawn) [Compound of formula (Ia), (4aS,5R,5aR,6R)-3,5,10,12-tetrahydroxy-6-methyl-1,11-dioxo-1,4,4a,5,5a,6,11,12a-octahydrotetracene-2-carboxamide] | 0.21 ± 0.05 | clearly decreases | significantly inhibits | yes | > 200 µM | > 200 µM | > 200 µM | less active | > 200 µM |  |  |
| NC(=O)C1=C(O)CC2CC3C(=C(O)C2C1=O)C(=O)c1c(O)ccc(Cl)c1[C@H]3O (stereo partly shown) [Compound of formula (C)] | 0.27 ± 0.13 |  |  | yes |  |  |  |  |  | reduced | +++ |
